Measurements as given in paper PMC10287695, “Non-covalent inhibitors of thioredoxin glutathione reductase with schistosomicidal activity in vivo” (Nature Communications, 2023).
Values joined by “and” are separate entries in the source; they are usually repeats but may differ in a detail not shown here. Equal entries are not always repeated. Where two headings read alike, the source gives them in different places.

Columns and labels:
[1] = target: T1, TGR (Schistosoma mansoni, UniProt Q962Y6, X597U); experiment: NADPH consumption (oxidase activity); assay type: biochemical, S. mansoni; conditions: replicates
T1 construct: made in house
Method: TRi-1, Stattic (both at 50 µM) and AF (20 µM) were incubated with 1 ml of 500 nM TGR and 100 µM NADPH in TGR reaction buffer for 30 min. The samples were desalted using a Zeba spin desalting column (Thermo Fisher Scientific) and 100 µl of the desalted sample was combined with 100 µl of 100 µM NADPH. NADPH consumption was monitored at 340 nm in triplicate. Compounds 1, 4, 6, and 7 (50 µM) were tested in the same fashion without the desalting step and with a first incubation step of 30 min for 6 and 7 and 2 h for 1 and 4.

[2] = target: T1, TGR; experiment: Superoxide production (pyrogallol red); assay type: biochemical, S. mansoni; conditions: replicates
Method: The production of superoxide by TGR was determined by monitoring reaction of superoxide with pyrogallol red[80]. Briefly, a 1 ml reaction mix (500 nM TGR, 100 µM NADPH, and 20–50 µM inhibitor) was incubated at room temperature for 30 min for fast inhibitors, or 2 h for slow inhibitors. For irreversible inhibitor controls TRi-1 (synthesized in house as reported[45]), Stattic (Cayman Chemical), and AF (Cayman Chemical), the samples were desalted using a Zeba spin desalting column. 100 µL of sample was combined with pyrogallol buffer with and without superoxide dismutase (SOD) (50 µM pyrogallol red, 300 µM NADPH; ± 10 units SOD). The reaction was measured at A340 and A540 simultaneously for 2 h.

[3] = target: T2, TGR (Schistosoma mansoni, UniProt Q962Y6); assay type: biochemical, S. mansoni; conditions: for mode of inhibition (NADPH varied): steady state
T2 construct: made in house
T2 sequence (Q962Y6 1-598): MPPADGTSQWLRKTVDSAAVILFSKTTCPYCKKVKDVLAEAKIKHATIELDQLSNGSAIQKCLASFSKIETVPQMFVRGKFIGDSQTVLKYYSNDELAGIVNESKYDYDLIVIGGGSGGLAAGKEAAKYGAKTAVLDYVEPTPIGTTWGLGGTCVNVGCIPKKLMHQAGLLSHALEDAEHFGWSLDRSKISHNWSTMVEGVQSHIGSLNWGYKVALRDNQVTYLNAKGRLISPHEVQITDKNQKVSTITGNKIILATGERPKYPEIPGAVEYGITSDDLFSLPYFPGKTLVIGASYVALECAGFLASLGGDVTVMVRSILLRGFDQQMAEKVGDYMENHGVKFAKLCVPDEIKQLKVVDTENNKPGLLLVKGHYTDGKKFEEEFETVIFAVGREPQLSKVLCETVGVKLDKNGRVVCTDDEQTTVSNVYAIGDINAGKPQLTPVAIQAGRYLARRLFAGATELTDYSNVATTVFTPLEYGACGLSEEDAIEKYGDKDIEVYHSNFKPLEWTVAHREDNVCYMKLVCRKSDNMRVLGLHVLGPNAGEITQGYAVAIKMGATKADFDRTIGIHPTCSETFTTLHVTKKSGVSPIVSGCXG
Method: Master mixes with varying concentrations of NADPH were made, each with 2 nM TGR in reaction buffer. Inhibitor (2 µl) was added to a 96 well microplate in triplicate for each NADPH and inhibitor concentration, and 192 µl of the master buffer was added to each well. The reaction incubated for 15 min and 6 µl of 50 mM DTNB was added to each well. The kinetic rate was measured at A412 for 5 min.

[4] = target: T2, TGR; experiment: NADPH dependence of inhibition; assay type: biochemical; design: unit not given here; conditions: panel b, replicates; for Rate, no NADPH: preincubation no NADPH; for Rate, with NADPH: preincubation with NADPH
Method: TGR was incubated at room temperature with inhibitor in the presence or absence of 100 µM NADPH for 15 min. DTNB (3 mM) and NADPH (100 µM) were added, and the reaction was monitored at A412 for 5 min to determine reaction rate. The assay was done in triplicate.

[5] = second of the two columns per substance (condition not given)
[6] = inhibitor 0.6 µM, NADPH 10 (unit not given)
[7] = inhibitor 0.6 µM, NADPH 30 (unit not given)
[8] = inhibitor 0.6 µM, NADPH 100 (unit not given)
[9] = inhibitor 0.6 µM, NADPH 300 (unit not given)
[10] = inhibitor 10 µM, NADPH 10 (unit not given)
[11] = inhibitor 10 µM, NADPH 30 (unit not given)
[12] = inhibitor 10 µM, NADPH 100 (unit not given)
[13] = inhibitor 10 µM, NADPH 300 (unit not given)
[14] = inhibitor 30 µM, NADPH 10 (unit not given)
[15] = inhibitor 30 µM, NADPH 30 (unit not given)
[16] = inhibitor 30 µM, NADPH 100 (unit not given)
[17] = inhibitor 30 µM, NADPH 300 (unit not given)
[18] = inhibitor 1 µM, NADPH 5 (unit not given)
[19] = inhibitor 1 µM, NADPH 10 (unit not given)
[20] = inhibitor 1 µM, NADPH 30 (unit not given)
[21] = inhibitor 1 µM, NADPH 100 (unit not given)
[22] = inhibitor 3 µM, NADPH 5 (unit not given)
[23] = inhibitor 3 µM, NADPH 10 (unit not given)
[24] = inhibitor 3 µM, NADPH 30 (unit not given)
[25] = inhibitor 3 µM, NADPH 100 (unit not given)

CC(=O)OC[C@H]1O[C@@H]([S-])[C@H](OC(C)=O)[C@@H](OC(C)=O)[C@@H]1OC(C)=O.CCP(CC)CC.[Au+] [AF, auranofin, reference compound]
NADPH consumption (rate/ΔOD340) [1]: -0.0002869 and -0.0002715 and -0.0002247
Superoxide production, Pyrogallol red consumption monitored ΔA540 ([2]; condition not given): -0.0001303 and -1.372e-5
Superoxide production, Pyrogallol red consumption monitored ΔA540 [2, 5]: -0.0001254 and 0.0001668

Cc1oc(-c2ccc3c(c2)OCO3)nc1CN[C@@H]1C[C@@H]2C[C@H]([C@H]1C)C2(C)C [Compound 1]
NADPH consumption (rate/ΔOD340) [1]: -0.000815 and -0.0007737 and -0.0007308
Superoxide production, Pyrogallol red consumption monitored ΔA540 ([2]; condition not given): -0.0003735 and -0.0003395 and -0.0002315
Superoxide production, Pyrogallol red consumption monitored ΔA540 [2, 5]: -9.411e-5 and -9.234e-5 and -8.721e-5

Cc1oc(-c2ccccc2)nc1CN[C@@H]1C[C@@H]2C[C@H]([C@H]1C)C2(C)C [Compound 3]
Vmax ([3]; 70 µM inhibitor, 6 hr preincubation): 0.0086 ± 0.0003 ΔA412/min
avg rate ([3]; NADPH 3 µM, 35 µM compound): 0.003992
avg rate ([3]; NADPH 3 µM, 50 µM compound): 0.003778
avg rate ([3]; NADPH 3 µM, 70 µM compound): 0.003468
avg rate ([3]; NADPH 10 µM, 35 µM compound): 0.007014
avg rate ([3]; NADPH 10 µM, 50 µM compound): 0.006219
avg rate ([3]; NADPH 10 µM, 70 µM compound): 0.005582
avg rate ([3]; NADPH 30 µM, 35 µM compound): 0.009551
avg rate ([3]; NADPH 30 µM, 50 µM compound): 0.008305
avg rate ([3]; NADPH 30 µM, 70 µM compound): 0.007122
avg rate ([3]; NADPH 100 µM, 35 µM compound): 0.01022
avg rate ([3]; NADPH 100 µM, 50 µM compound): 0.009229
avg rate ([3]; NADPH 100 µM, 70 µM compound): 0.00846
mode of inhibition (NADPH varied) [3]: uncompetitive inhibition
mode of inhibition (NADPH varied) ([3]; listed as 3 (8VP83)): uncompetitive behavior

Cc1oc(C2CCCCC2)nc1CN[C@@H]1C[C@@H]2C[C@H]([C@H]1C)C2(C)C [Compound 4]
NADPH consumption (rate/ΔOD340) [1]: -0.0007477 and -0.0007112 and -0.0007089
Superoxide production, Pyrogallol red consumption monitored ΔA540 ([2]; condition not given): -0.0003594 and -0.0003266 and -0.0002925
Superoxide production, Pyrogallol red consumption monitored ΔA540 [2, 5]: -3.468e-5 and -5.202e-5

C#CCN(Cc1nc(-c2ccccc2)oc1C)[C@@H]1C[C@@H]2C[C@H]([C@H]1C)C2(C)C [Compound 6]
Rate, no NADPH [4]: 0.02684 and 0.02786 and 0.03567
Rate, with NADPH [4]: 0.00166 and 0.0006764 and 0.001495
NADPH consumption (rate/ΔOD340) [1]: -0.0004895 and -0.0006543 and -0.0006565
Superoxide production, Pyrogallol red consumption monitored ΔA540 ([2]; condition not given): -0.0001397 and -0.0001399
Superoxide production, Pyrogallol red consumption monitored ΔA540 [2, 5]: -5.466e-5 and -1.08e-5 and -2.977e-5

C[C@@H]1[C@H]2C[C@@H](C[C@H]1NCc1nc3ccccc3n1C1CCCCCC1)C2(C)C [Compound 8]
Rate, no NADPH [4]: 0.045 and 0.0455
Rate, with NADPH [4]: 0.006 and 0.0015 and 0.0024
Vmax ([3]; 0.6 µM fast inhibitor): 0.05 ± 0.0017 ΔA412/min
Vmax ([3]; 10 µM fast inhibitor): 0.0091 ± 0.0007 ΔA412/min
Vmax ([3]; 30 µM fast inhibitor): 0.0067 ± 7E-5 ΔA412/min
Rate, single replicate [3, 6]: 0.02362 and 0.02203 and 0.02232
avg rate [3, 6]: 0.02266
Rate, single replicate [3, 7]: 0.03949 and 0.03661 and 0.03778
avg rate [3, 7]: 0.03796
Rate, single replicate [3, 8]: 0.04159 and 0.0438 and 0.04407
avg rate [3, 8]: 0.04315
Rate, single replicate [3, 9]: 0.04835 and 0.04882 and 0.0495
avg rate [3, 9]: 0.04889
Rate, single replicate [3, 10]: 0.007669 and 0.006838 and 0.009131
avg rate [3, 10]: 0.007879
Rate, single replicate [3, 11]: 0.005991 and 0.006991 and 0.01256
avg rate [3, 11]: 0.008514
Rate, single replicate [3, 12]: 0.006895 and 0.007479 and 0.009519
avg rate [3, 12]: 0.007964
Rate, single replicate [3, 13]: 0.01018 and 0.009394 and 0.01058
avg rate [3, 13]: 0.01005
Rate, single replicate [3, 14]: 0.00609 and 0.005955 and 0.006026
avg rate [3, 14]: 0.006024
Rate, single replicate [3, 15]: 0.006205 and 0.005206 and 0.007748
avg rate [3, 15]: 0.006386
Rate, single replicate [3, 16]: 0.006944 and 0.006279 and 0.006539
avg rate [3, 16]: 0.006587
Rate, single replicate [3, 17]: 0.005974 and 0.006732 and 0.007751
avg rate [3, 17]: 0.006819
mode of inhibition (NADPH varied) [3]: uncompetitive inhibition
mode of inhibition (NADPH varied) ([3]; listed as 8 (9VP173)): uncompetitive behavior

CC1C(NCc2cn(C3OCC(O)C(O)C3O)c3ccccc23)CC2CC1C2(C)C (stereo not drawn) [Compound 9]
Vmax ([3]; 10 µM fast inhibitor): 0.012 ± 0.00012 ΔA412/min
Vmax ([3]; 30 µM fast inhibitor): 0.0056 ± 0.00043 ΔA412/min
Vmax ([3]; 60 µM fast inhibitor): 0.0033 ± 0.00024 ΔA412/min
Rate, single replicate [3, 18]: 0.004595 and 0.004128 and 0.004463
avg rate [3, 18]: 0.004395
Rate, single replicate [3, 19]: 0.005356 and 0.005454 and 0.005186
avg rate [3, 19]: 0.005332
Rate, single replicate [3, 20]: 0.00852 and 0.006935
avg rate [3, 20]: 0.007727
Rate, single replicate [3, 21]: 0.008379 and 0.007686 and 0.007654
avg rate [3, 21]: 0.007906
Rate, single replicate [3, 22]: 0.002898 and 0.002979 and 0.003645
avg rate [3, 22]: 0.003174
Rate, single replicate [3, 23]: 0.003704 and 0.003359 and 0.003645
avg rate [3, 23]: 0.003569
Rate, single replicate [3, 24]: 0.005584
avg rate [3, 24]: 0.02094
Rate, single replicate [3, 25]: 0.004192 and 0.005 and 0.004489
avg rate [3, 25]: 0.00456
Rate, single replicate ([3]; inhibitor 10 µM, NADPH 5 (unit not given)): 0.00023 and 0.001097 and 0.0005855
Rate, single replicate [3, 10]: 0.001061 and 0.0007127 and 0.0008019
Rate, single replicate [3, 11]: 0.0004565 and 0.000593
Rate, single replicate [3, 12]: 0.0001918 and 0.000912 and 1.594e-5
mode of inhibition (NADPH varied) [3]: noncompetitive inhibition
